According to patent publication US20100136573A1, “DIAGNOSING NEURODEGENERATIVE DISEASES” (priority 2007, published 2010):
Where a SMILES comes first, the peptide text is derived from it. The star is where a group is joined. Cbz = O=C(OCc1ccccc1)*; OtBu = CC(C)(C)O*; CH2F = FC*

Key:
H4 neuroglioma cells = experiment: Proteasome-induced toxicity, Western blot; assay type: cell-based
Procedure: H4 neuroglioma cells were grown in Opti-Mem plus 10% FBS and 1% pen-strep. Cells were plated in 6-well plates and at 90% confluency treated with 10 μM proteasome inhibitor I (PSI) (EMD Chemicals, Inc. San Diego, Calif.) or 100 μM pan-caspase inhibitor (Z-VAD-FMK) (EMD Chemicals, Inc. San Diego, Calif.) separately or in combination. Twenty-four hours after treatment, the cells were harvested for subsequent Western blot analysis in the Co-IP buffer (50 mM Tris-HCl, pH 7.4, 1 M NaCl, 1% Triton-X-100, 5 mM EDTA) plus 1% SDS, PMSF, and protease and phosphatase inhibitors.
Protein concentrations of cells lysates were measured by a standard BCA assay (Pierce, Rockford, Ill.). Then, the samples were heated in Laemmli's buffer, and equal amounts of protein were loaded into 10-well 10% or 4-20% Tris-glycine gels (Novex, San Diego, Calif.). After transfer, blots were blocked with 5% nonfat dry milk in TBST ([…]) for 1 hour, and then incubated with rabbit polyclonal TDP-43 antibody (1:500; ProteinTech Group, Inc, Chicago, Ill.), rabbit polyclonal caspase-3 antibody (1:1000; Cell Signaling, Beverly, Mass.), HSP70 (1:2000; Stressgen, Ann Arbor, Mich.), GADPH (1:5000; Biodesign International, Kennebunkport, Me.), or mouse monoclonal β-actin antibody (1:5000, Sigma, Saint Louis, Miss.) overnight at 4° C. Membranes were washed three times each for 10 minutes with TBST and then incubated with anti-mouse or anti-rabbit IgG conjugated to horseradish peroxidase (1:2000; Jackson ImmunoResearch, West Grove, Pa.) for 1 hour. Membranes were then washed three times each for 10 minutes, and protein expression was visualized by ECL treatment and exposure to film.

TDP-43 = experiment: Proteolytic processing of TDP-43 and caspase-3, Western blot of HeLa and H4 cells; assay type: cell-based
Procedure: For progranulin small interfering RNA (siRNA) transfections, siRNA was predesigned by QIAGEN (QIAGEN Inc, Valencia, Calif.) for GenBank Accession Number NM—001012479, and the sense sequence was 5′-r([sequence])dTdT-3′ (SEQ ID NO:5). siRNA experiments were carried out in 6-well plates. Final siRNA concentration (progranulin or a validated negative control siRNA) per well was 20 nM in Opti-Mem, with 4 μL of siLentFect transfection reagent (Bio-Rad, Hercules, Calif.) used per well. This mixture was incubated in a final volume of 500 μL for 20 minutes and then added to 40%-50% confluent HeLa and H4 cells in 6-well dishes plated the previous day for a final in-well volume of 2 mL. Seventy-two hours after transfection, cells were harvested for subsequent Western blot analysis in lysis buffer containing Co-IP buffer (50 mM Tris-HCl, pH 7.4, 1 M NaCl, 1% Triton-X-100, 5 mM EDTA) plus 1% SDS, PMSF, and both a protease and phosphatase inhibitor mixture. For caspase inhibitor treatment, the cells were transfected with progranulin siRNA for 24 hours, and then the pan-caspase inhibitor (Z-VAD-FMK) (EMD Chemicals, Inc. San Diego, Calif.) was added to cells for additional 48 hours at a final concentration of 100 μM. Cell lysates was prepared as described herein. […]
Protein concentrations of cells lysates were measured by a standard BCA assay (Pierce, Rockford, Ill.). […]

HEK293 cells = experiment: Inclusion formation and distribution of GFP-TDP-43 constructs, confocal microscopy; assay type: cell-based; conditions: for cellular distribution: HEK293, confocal fluorescence microscopy
Procedure: HEK293 cells, grown on glass coverslips, were transfected with 0.3 μg of expression vector (GFP, GFP-TDP-43, GFP-TDP-43-caspase-resistant, GFP-TDP-35, GFP-TDP-25, or GFP-TDP-ΔNR1) by using Lipofectamine 2000 (Invitrogen) according to the manufacturer's instructions then subjected to immunofluorescence analysis 48 hours later. To determine if the cytoplasmic inclusion were insoluble, some cells were treated with 0.2% Triton X-100 prior to fixation, in order to remove soluble protein. To determine if the formation of inclusion was aggresome-dependent, some cells were treated with 1 μM nocodazole (Sigma) for 24 hours after 6 hours of transfection. Finally, to examine if inclusions were ubiquitinated, cells were cotransfected with 0.3 μg of a TDP-43 construct and 0.5 μg HA-ubiquitin, then subjected to immunofluorescence analysis 72 hours later.
(§1) The cultured HEK293 and differentiated M17 cells were fixed with 4% paraformaldehyde in phosphate-buffered saline (PBS) at 4° C. for 15 minutes and permeabilized with PBS-0.5% Triton X-100 for 10 minutes. After blocking with 5% BSA for 1 hour at 37° C., the cells were incubated overnight at 4° C. with mouse monoclonal HA antibody (1:1000, Roche Applied Science), rabbit polyclonal activated caspase-3 antibody (1:250, Cell Signaling), rabbit polyclonal anti-pTDP-43 (which detects phosphorylated S409/S410; 1:1000, COSMO BIO CO., LTD), mouse monoclonal Flag antibody (1:1000, Sigma), rabbit polyclonal M2085 (1:1000), or rabbit polyclonal M2079 (1:1000). After washing, cells were incubated with the Alexa 568-conjugated goat anti-mouse IgG secondary antibody (1:1000, Molecular Probes) or anti-rabbit IgG secondary antibody (1:500, Molecular Probes) at 37° C. for 2 hours. Finally, Hoechst 33258 (1 μg/mL, Invitrogen) was used to stain the nuclei. Images were obtained on a Zeiss LSM 510 META confocal microscope.

HeLa or H4 cells = experiment: Immunofluorescence and confocal microscopy of TDP-43 localization; assay type: cell-based; conditions: 1 μM for 3 hours, in contrast to untreated cells
hnRNPA2 = molecular target: T1, hnRNPA2 (Homo sapiens, UniProt P22626); experiment: Co-immunoprecipitation with Flag-tagged hnRNPA2; assay type: binding; conditions: HeLa cells, probing for GFP
T1 construct: expressed in transfected cells; host or cells: HeLa cells
T1 sequence (P22626 1-341 isoform P22626-2, species assumed): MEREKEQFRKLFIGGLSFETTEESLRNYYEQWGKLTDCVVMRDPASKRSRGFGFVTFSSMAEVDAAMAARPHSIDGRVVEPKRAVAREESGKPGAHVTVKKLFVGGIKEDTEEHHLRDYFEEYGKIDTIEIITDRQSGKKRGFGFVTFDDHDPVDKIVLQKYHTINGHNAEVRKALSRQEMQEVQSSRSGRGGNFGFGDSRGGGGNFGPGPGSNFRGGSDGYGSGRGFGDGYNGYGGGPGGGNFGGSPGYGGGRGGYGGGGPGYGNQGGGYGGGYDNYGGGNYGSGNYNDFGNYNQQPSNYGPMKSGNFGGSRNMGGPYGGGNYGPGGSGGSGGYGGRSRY
Procedure: (§2) For co-immunoprecipitation studies, HeLa cells were transfected with 1 or 2 μg of each plasmid. Cells were harvested 48 hours later using Co-IP buffer (50 mM Tris-HCl, pH 7.4, 1 M NaCl, 1% Triton X-100, 5 mM EDTA) containing PMSF as well as protease and phosphatase inhibitors. The lysates were sonicated and centrifuged at 16,000 g for 20 minutes. The protein concentration of supernatants was determined by BCA assay (Thermo Scientific). Supernatant containing 500 μg of total protein was combined with Anti-Flag M2 agarose (Sigma) and incubated overnight at 4° C. with gentle shaking. The agarose was pelleted by centrifugation at 2,500 g for 5 minutes and washed with Co-IP buffer 6 times. Captured protein was eluted from the beads using loading buffer and resolved by SDS-PAGE for Western blot analysis.

Flag-TDP-43 = molecular target: T2, Flag-TDP-43 (Homo sapiens, UniProt Q13148); experiment: Co-immunoprecipitation with Flag-TDP-43; assay type: binding; conditions: HeLa cells, probing for GFP
T2 construct: the exon skipping activity in cells overexpressing full-length TDP-43 was examined; expressed in transfected cells; host or cells: HeLa cells
T2 sequence (Q13148 whole entry): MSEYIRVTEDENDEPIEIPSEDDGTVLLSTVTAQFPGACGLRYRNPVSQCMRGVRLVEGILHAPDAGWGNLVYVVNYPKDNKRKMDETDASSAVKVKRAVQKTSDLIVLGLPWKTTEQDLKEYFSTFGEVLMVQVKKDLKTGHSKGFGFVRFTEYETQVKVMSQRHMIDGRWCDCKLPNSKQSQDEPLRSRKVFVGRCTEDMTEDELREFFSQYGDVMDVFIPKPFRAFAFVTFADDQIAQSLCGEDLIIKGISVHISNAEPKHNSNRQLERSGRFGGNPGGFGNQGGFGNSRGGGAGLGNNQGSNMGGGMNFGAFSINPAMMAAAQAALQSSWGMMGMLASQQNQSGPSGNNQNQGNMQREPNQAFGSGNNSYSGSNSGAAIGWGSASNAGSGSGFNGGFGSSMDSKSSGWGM
Procedure: as §2

[1] = tested on: TDP-43 exon 9 skipping activity; experiment: CFTR mini-gene splicing assay; assay type: cell-based; conditions: for CFTR exon 9 exclusion (endogenous TDP-43 background): HeLa cells cotransfected with CFTR minigene, RT-PCR, compared to GFP; for exon skipping activity in cells overexpressing Flag-TDP-43: cotransfected with CFTR mini-gene and Flag-TDP-43
Procedure: The CFTR mini-gene splicing assay was conducted as described elsewhere (Pagani et al., J. Biol. Chem., 275(28):21041-21047 (2000) and Ayala et al., FEBS Lett., 580(5):1339-1344 (2006)). In brief, Hela cells were co-transfected with 1 μg of minigene construct and 1 μg of GFP-fusion protein expression vector. […] Then, 2 μg of total RNA was used to synthesize cDNA using the SuperScript III First-Strand Synthesis System (Invitrogen). For the PCR, 2 μL of cDNA was used in a 20 μL of reaction according to the manufacturer's protocol for Taq PCR Core Kit (Qiagen). The amplification conditions consisted of an initial denaturation step at 94° C. for 3 minutes, followed by 30 cycles of 94° C. for 30 seconds, 62° C. for 60 seconds, and 72° C. for 90 seconds.

[2] = tested on: differentiated M17 neuroblastoma cells; experiment: Toxicity assay (LDH release, activated caspase-3 staining); assay type: cell-based; conditions: for activated caspase-3 staining: confocal microscopy; for LDH levels compared to cells expressing only GFP: medium collected 72 hours after transfection
Procedure: M17 neuroblastoma cells, seeded at 2.5×10^3 cells per well in 24-well plates, were grown in Neurobasal A/B27 medium containing Glutamax (Invitrogen) and 10 μM retinoic acid (Sigma) to induce differentiation. Seven days later, cells were transfected with 0.2 μg of expression vector for 72 hours. The medium was collected, and a LDH assay (Promega) was used to measure LDH levels as an indicator of toxicity. Then, cells were fixed, and immunofluorescent staining was done using an antibody against activated caspase-3 (1:250; Cell signaling) and the nuclear marker, bisbenzimide (Hoechst 33258).
as §1

[3] = co-treated with PSI 10 μM and caspase inhibitor 100 μM, 24 hours

CC[C@H](C)[C@H](NC(=O)OCc1ccccc1)C(=O)N[C@@H](CCC(=O)OC(C)(C)C)C(=O)N[C@@H](C)C(=O)N[C@H](C=O)CC(C)C [PSI] (Cbz-IE(OtBu)AL-aldehyde)
HSP70 levels (H4 neuroglioma cells; PSI 10 μM, 24 hours): increased | cleavage of endogenous cellular TDP-43 (H4 neuroglioma cells; PSI 10 μM, 24 hours): cleaved into ˜35 and ˜25 kD fragments | cleaved (active) caspase-3 levels (H4 neuroglioma cells; PSI 10 μM, 24 hours): marked increase | full length TDP-43 band (˜43 kD) (H4 neuroglioma cells; PSI 10 μM, 24 hours): reduction

COC(=O)C[C@H](NC(=O)[C@H](C)NC(=O)[C@@H](NC(=O)OCc1ccccc1)C(C)C)C(=O)CF [Z-VAD (OMe)-FMK] (Cbz-Val-Ala-Asp(OMe)-CH2F)
caspase-3 activity (TDP-43; PGRN RNAi-treated HeLa cells plus pan-caspase inhibitor): suppresses | production of ˜35 and ˜25 kD TDP-43 fragments (TDP-43; PGRN siRNA-treated cells, inhibitor 100 μM for additional 48 hours): inhibited | HSP70 levels (H4 neuroglioma cells; PSI plus caspase inhibitor): persisted | PSI-induced caspase-3 activity (H4 neuroglioma cells; [3]): suppressed | generation of proteolytic TDP-43 fragments (H4 neuroglioma cells; [3]): inhibited

COC(=O)Nc1nc2ccc(C(=O)c3cccs3)cc2[nH]1 [nocodazole, reference compound]
effect on inclusions formed by GFP-TDP-25 and GFP-TDP-35 (HEK293 cells; 1 μM for 24 hours after 6 hours of transfection): not disrupted

CN[C@@H]1C[C@H]2O[C@@](C)([C@@H]1OC)n1c3ccccc3c3c4c(c5c6ccccc6n2c5c31)C(=O)NC4 [staurosporine]
TDP-43 cellular localization (HeLa or H4 cells): increased cytoplasmic TDP-43 staining

GFP-TDP1-175: GFP-tagged C-terminal deletion mutant lacking the glycine rich region
binding to hnRNPA2 (hnRNPA2): failed to bind | binding to Flag-TDP-43 (Flag-TDP-43): bound strongly

GFP-TDP1-257: GFP-tagged C-terminal deletion product of TDP-43
binding to Flag-TDP-43 (Flag-TDP-43): bound strongly

GFP-TDP76-414: GFP-tagged second C-terminal fragment (76-414) that retains nuclear distribution
CFTR exon 9 exclusion (endogenous TDP-43 background) [1]: did not promote exon 9 exclusion | exon skipping activity in cells overexpressing Flag-TDP-43 [1]: markedly reduced | binding to hnRNPA2 (hnRNPA2): did indeed interact | binding to Flag-TDP-43 (Flag-TDP-43): only weakly interacted

GFP-TDP-43-caspase-resistant: GFP-tagged TDP-43 with aspartic acid at positions 89 and 219 substituted to glutamic acid
cellular distribution (HEK293 cells): localized almost exclusively to the nucleus | activated caspase-3 staining [2]: did not stain | LDH levels compared to cells expressing only GFP [2]: comparably increased

GFP-TDP-43: full-length wild-type TDP-43 tagged at the amino terminal with enhanced GFP
cellular distribution (HEK293 cells): localized almost exclusively to the nucleus | activated caspase-3 staining [2]: did not stain | LDH levels compared to cells expressing only GFP [2]: comparably increased | CFTR exon 9 exclusion (endogenous TDP-43 background) [1]: marked increase in exon exclusion | exon skipping activity in cells overexpressing Flag-TDP-43 [1]: promoted exon 9 exclusion | binding to hnRNPA2 (hnRNPA2): interact with hnRNPA2 | binding to Flag-TDP-43 (Flag-TDP-43): bound strongly
